Where a name gives a salt, the structure may show the parent alone.
What was measured:
[1] = tested on: human KB tumors (ATCC CCL 17 KB, human epidermoid larynx tumors); experiment: KB tumor model, subcutaneous implants in nude mice, oral treatment (Experiment 2); type: in vivo, female nu/nu mice (strain NMRI); conditions: for efficacy of standard cytostatics: KB implanted tumors in test mice
Text: (§1) The inventors used female, nu/nu mice (strain NMRI) aged 9-10 weeks and weighing 21-29 g (Breeder: Bomholtgard Breeding and Research Center, DK-8680 Ry) for testing. Tumor fragments consisting of the human KB tumors (ATCC; Rockville, Md.; cell line ATCC CCL 17 KB, human epidermoid larynx tumors), and having an average diameter of 2 mm, were implanted subcutaneously into the right side of the test mice.
The test mice were randomly assigned to various treatment and control groups.
Tumor weights were estimated by first palpating the tumors and then comparing the volumes of the palpated tumors with the volumes of prefabricated plasticine models according to Druckrey, et al., “Experimentelle Beiträge zum Dosis-Problem in der Krebs-Chemotherapie und zur Wirkungsweise von Endoxan, Dtsch. Med. Wschr., 88:651 (1963). After determining the weight of the models, the inventors converted each of these values to a tumor weight by determining the relationship between the specific weight of each tumor tissue and its corresponding plasticine model. To ensure the accuracy of this method, the inventors simultaneously estimated the weights of 99 individual tumors by both palpation and direct weighing of extirpated tumors.
Once the KB tumor implants attained a weight of approximately 0.2 g, the inventors commenced therapy with the compounds of Examples 1, 8, 17, 21, 22, 24 and 25 of the subject application. Each compound was dissolved in 0.9% NaCl and administered per os (stomach tube) in accordance with the regimen schedules detailed in Graphs 10-17 hereinbelow. The control mice were treated with the vehicle alone.
During the observation period, tumor weights were determined for each of the test mice at regular intervals.
The test mice were all housed under specific pathogen free (SPF) conditions with unrestricted water supply (acidified to pH 3) and standard pellet lab chow (Altromin 1324).

[2] = tested on: DMBA-induced mammary carcinomas; experiment: DMBA-induced mammary carcinoma model, oral treatment, tumor weight by palpation (Experiment 1); type: in vivo, female Sprague-Dawley rats; conditions: for efficacy of standard cytostatics: DMBA-induced mammary carcinomas in test rats
Text: The first tumor appeared approximately one month after feeding the subject rats with DMBA. Tumor weights were estimated on the basis of tumor volume. This was accomplished by palpating tumors and comparing the volumes of the palpated tumors with the volumes of prefabricated plasticine models in the manner taught by Druckrey, et al., “Experimentelle Beiträge zum Dosis-Problem in der Krebs-Chemotherapie und zur Wirkungsweise von Endoxan, Dtsch. Med. Wschr., 88:651 (1963). Each of the relevant plasticine models was then weighed and converted to a tumor weight by means of a factor reflecting the relationship between the specific weight of each tumor tissue and its corresponding plasticine model. […] A statistical evaluation of the resulting data indicated a correlation coefficient of 0.98. Test rats having a total tumor weight of approximately 1 g were randomly allocated amongst various dosage and control groups, each group having a total of 6-7 rats. In this way, the inventors were able to ensure an approximately equal distribution amongst the experimental groups of tumors having different latencies, total tumor weight and numbers of tumor nodes. […] The control group was given tap water in accordance with the same schedule. […] During the observation period, tumor weights were determined for each of the test rats at regular intervals. The test rats were all housed under specific pathogen free (SPF) conditions with unrestricted water supply (acidified to pH 3) and standard pellet lab chow (Altromin 1324). […] J. Oncol., 2:161 (1993).

[3] = tested on: DMBA-induced mammary carcinomas / KB implanted tumors; experiment: Summary statement on Experiments 1 and 2 (DMBA and KB tumor models, model not told per compound); type: in vivo, rats / mice; conditions: for tumor remission: model and regimen not given; for GII (growth inhibition index): specified dosage regimens, model not given, GII>100% = tumor regression
Protocol: The inventors induced mammary carcinomas in female Sprague-Dawley rats (Mollegaard Breeding Center, DK-4236 Ejby) aged 50 days by administering a single dose of 20 mg 7,12-dimethylbenz(a)anthracene (DMBA) dissolved in 1 ml of olive oil to each rat by gavage. The first tumor appeared approximately one month after feeding the subject rats with DMBA.
as §1
Results from Experiments 1 and 2 were calculated and expressed in accordance with the growth inhibition index (GII) described in Voegeli, et al., “Selective cytostatic activity of Hexadecylphosphocholine against tumor cells in vitro leads to the establishment of an in vivo screening system for phospholipid analogues,” Int. J. Oncol., 2:161 (1993). The GII values from Experiments 1 and 2 are detailed in Table 1 below.

[4] = 4 × 100 mg/kg per os, treatment day 0, 3, 7, 10, >100 = tumor regression
[5] = 2 × 316 mg/kg per os, treatment day 0, 7

COc1cccc2c1C(=O)c1c(O)c3c(c(O)c1C2=O)C[C@@](O)(C(=O)CO)C[C@@H]3O[C@H]1C[C@H](N)[C@H](O)[C@H](C)O1 [Adriamycin, reference compound]
efficacy of standard cytostatics [1]: relatively ineffective | efficacy of standard cytostatics [2]: relatively ineffective

N.N.[Cl][Pt][Cl] [Cisplatin, reference compound]
efficacy of standard cytostatics [1]: relatively ineffective | efficacy of standard cytostatics [2]: relatively ineffective

O=P1(N(CCCl)CCCl)NCCCO1 (centres unmarked) [Cyclophosphamide, reference compound]
efficacy of standard cytostatics [1]: relatively ineffective | efficacy of standard cytostatics [2]: relatively ineffective

CCCCCCCCCCCCCCCCCCOP(=O)([O-])OC1CC[N+](C)(C)CC1 [Example 1, 4-(((Octadecyloxy)hydroxyphosphenyl)oxy)-1,1-dimethylpiperidinium hydroxide internal salt]
KB (G.I.I. %) ([1]; 1 × 511 mg/kg per os, treatment day 0): 103% | tumor remission [3]: complete disappearance of tumors | DMBA (G.I.I. %) [2, 4]: 119% | DMBA (G.I.I. %) ([2]; 14 × 31.6 mg/kg per os, treatment day 0-13): 108% | DMBA (G.I.I. %) ([2]; 28 × 68.1 mg/kg per os, 'large tumors', treatment day 0-27): 137%

CCCCCCCCCCCCCCCCCCOP(=O)([O-])OCC1CCCC[N+]1(C)C (centres unmarked) [Example 8, Octadecyl (1,1-dimethylpiperidinio-2-yl)methyl phosphate]
KB (G.I.I. %) [1, 5]: 100% | GII (growth inhibition index) [3]: 100% | DMBA (G.I.I. %) [2, 4]: 125%

CCCCCCCCCCCCCCCCCCOP(=O)([O-])OCC1CCC[N+](C)(C)C1 (centres unmarked) [Example 10, Octadecyl (1,1-dimethylpiperidinio-3-yl)methyl phosphate]
KB (G.I.I. %) [1, 5]: 99% | GII (growth inhibition index) [3]: 100%

CCCCCCCCCCCCCCCCCCOP(=O)([O-])OC1CCC[N+](C)(C)CC1 (centres unmarked) [Example 13, Octadecyl 1,1-dimethylhexahydroazepinio-4-yl phosphate]
DMBA (G.I.I. %) ([2]; 1 × 511 mg/kg per os, 'large tumors', treatment day 0): 145% | DMBA (G.I.I. %) ([2]; 14 × 46.4 mg/kg per os, treatment day 0-13): 129%

CCCCCCCCCCCCCCCCCCOP(=O)([O-])OC1CC[N+](C)(C)C1 (centres unmarked) [Example 17, Octadecyl 1,1-dimethylpyrrolidinio-3-yl phosphate]
KB (G.I.I. %) ([1]; 2 × 100 mg/kg per os, treatment day 0, 7): 90%

CCCCCCCCCCCCCCCCOP(=O)([O-])OCC1CCC[N+]1(C)C (centres unmarked) [Example 20, Hexadecyl (1,1-dimethylpyrrolidinio-2-yl)methyl phosphate]
GII (growth inhibition index) [3]: 100% | DMBA (G.I.I. %) [2, 4]: 99%

CCCCCCCCCCCCCCCCCCOP(=O)([O-])OCC1CCC[N+]1(C)C (centres unmarked) [Example 21, Octadecyl (1,1-dimethylpyrrolidinio-2-yl)methyl phosphate]
KB (G.I.I. %) [1, 5]: 106% | tumor remission [3]: complete disappearance of tumors | DMBA (G.I.I. %) [2, 4]: 116%

CCCCCCCCCCCCCCCCOP(=O)([O-])OC1C[N+]2(C)CCC1CC2 (centres unmarked) [Example 22, Hexadecyl 1-methylquinuclidinio-3-yl phosphate]
KB (G.I.I. %) ([1]; 2 × 383 mg/kg per os, treatment day 0, 7): 102% | DMBA (G.I.I. %) [2, 4]: 105%

CCCCCCCCCCCCCCCCOP(=O)([O-])OC1CC2CCC(C1)[N+]2(C)C (centres unmarked) [Example 24, Hexadecyl 1,1-dimethyltropanio-4-yl phosphate]
KB (G.I.I. %) ([1]; 2 × 215 mg/kg per os, treatment day 0, 7): 108%

CCCCCCCCCCCCCCCCCCOP(=O)([O-])OC1CC2CCC(C1)[N+]2(C)C (centres unmarked) [Example 25, Octadecyl 1,1-dimethyltropanio-4-yl phosphate]
KB (G.I.I. %) [1, 5]: 110% | tumor remission [3]: complete disappearance of tumors

— patent US6479472B1, “Methods of using therapeutic phospholipid derivatives” (Asta Medica Aktiengesellschaft, priority 1993, dated 2002)
